Assay results reported in the NIST ThermoML archive (doi:10.1021/acs.jced.5b00116).
Numbers after ± are expanded uncertainties.

Assay: activity coefficient (dimensionless); of the first substance listed, at infinite dilution; wn = mass fraction of the nth substance listed
Conditions: 101 kPa, Liquid, Chromatography, w1 = 0

Row | SMILES | activity coefficient (313.15 K) | activity coefficient (333.15 K) | activity coefficient (353.15 K) | activity coefficient (373.15 K) | activity coefficient (393.15 K)
1 | CCO [ethanol] + OCC(O)CO | 4.76 ± 0.5 | 3.98 ± 0.42 | 3.73 ± 0.39 | 3.52 ± 0.37 | 3.25 ± 0.34
2 | O [water] + OCC(O)CO | 0.73 ± 0.08 | 0.75 ± 0.08 | 0.78 ± 0.08 | 0.79 ± 0.08 | 0.8 ± 0.08
